Measurements published in US10093713B2, “GIP-GLP-1 dual agonist compounds and methods” (priority 2013, dated 2018).
Where two headings read alike, the source gives them in different places. *1 amine or outer side, *2 acyl side, *3 side chain or, on linkers, in order; H or OH if unused. Where a SMILES comes first, the peptide text is derived from it. Side-chain parts run from the residue outwards. [ ]: non-standard residue; d: D form. The star is where a group is joined. C20 diacid = O=C(O)CCCCCCCCCCCCCCCCCCC(=O)*; C18 diacid = O=C(O)CCCCCCCCCCCCCCCCC(=O)*; γGlu = O=C(O)[C@H](CCC(=O)[*:2])N[*:1]; AEEA = NCCOCCOCC(=O)O; Aib = CC(C)(N)C(=O)O

What was measured:
human GLP-1 R = biological target: T1, human GLP-1 R (Homo sapiens, UniProt P43220); assay: Human GLP-1 receptor (GLP-1 R) activity assay, cAMP induction (AlphaScreen) in HEK293 cells; type: cell-based
T1 construct: expressed in transfected cells
T1 sequence (P43220 24-463): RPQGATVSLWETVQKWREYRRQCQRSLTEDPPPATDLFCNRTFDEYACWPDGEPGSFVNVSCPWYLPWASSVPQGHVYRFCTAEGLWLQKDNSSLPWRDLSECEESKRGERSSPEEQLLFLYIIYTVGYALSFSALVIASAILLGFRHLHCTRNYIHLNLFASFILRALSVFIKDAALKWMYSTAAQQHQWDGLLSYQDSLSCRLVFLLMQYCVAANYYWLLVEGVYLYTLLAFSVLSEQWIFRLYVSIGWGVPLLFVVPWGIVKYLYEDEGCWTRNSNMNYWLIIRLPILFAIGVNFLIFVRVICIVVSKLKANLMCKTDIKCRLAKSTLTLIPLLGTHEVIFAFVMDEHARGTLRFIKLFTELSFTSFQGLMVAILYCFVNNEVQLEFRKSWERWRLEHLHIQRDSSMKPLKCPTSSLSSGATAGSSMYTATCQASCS
Method in brief: (§1)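 Stable HEK293 clones expressing human GIP R or GLP-1 R, seeded 1 day before; cells washed in Tyrode's buffer (10 mM HEPES, pH 7.4), stimulated, then lysed. cAMP measured by AlphaScreen bead competition (1 h, room temperature, dark). EC50 = concentration giving half-maximal cAMP elevation, from curves of absolute cAMP (nM) vs log concentration.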

human GIP R = biological target: T2, human GIP R (Homo sapiens, UniProt P48546); assay: Human GIP receptor (GIP R) activity assay, cAMP induction (AlphaScreen) in HEK293 cells; type: cell-based; conditions: read-out: hGIP-R cAMP EC50 average value
T2 construct: expressed in transfected cells
T2 sequence (P48546 22-466): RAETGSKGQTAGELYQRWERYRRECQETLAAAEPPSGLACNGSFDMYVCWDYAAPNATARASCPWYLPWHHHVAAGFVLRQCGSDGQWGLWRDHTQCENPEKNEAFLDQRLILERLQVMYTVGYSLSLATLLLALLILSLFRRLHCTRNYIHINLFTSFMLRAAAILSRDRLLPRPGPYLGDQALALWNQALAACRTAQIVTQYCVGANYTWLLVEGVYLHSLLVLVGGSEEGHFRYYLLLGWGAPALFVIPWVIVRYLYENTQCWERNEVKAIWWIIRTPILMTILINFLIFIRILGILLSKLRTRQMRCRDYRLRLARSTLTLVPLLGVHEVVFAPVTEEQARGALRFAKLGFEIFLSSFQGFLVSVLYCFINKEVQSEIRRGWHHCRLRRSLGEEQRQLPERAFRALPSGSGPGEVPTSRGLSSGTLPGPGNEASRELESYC
Method in brief: as §1

[1] = Pharmacokinetics of selected compounds in mice; type: in vivo, C57BL/6J mice; conditions: male, C57BL/6J, mouse, plasma; for bioavailability: subcutaneous, AUCinf (s.c.)/AUCinf (i.v.)x100, values marked * capped to 100%
Protocol: Pharmacokinetics of Selected Compounds in Mice
C57BL/6J mice (males with a body weight of approximately 25 g) were given either a single subcutaneous (s.c.) bolus or a single intravenous (i.v.) bolus of each peptide to be tested.
Following s.c. administration of the selected compounds (50, 100 or 200 nmol/kg), blood samples were drawn at 8 (eight) timepoints up to 72 hours post-dose. Following i.v. administration of the selected compounds (50, 100 or 200 nmol/kg), blood samples were drawn at 8 (eight) timepoints up to 48 hours post-dose. Blood samples were drawn by sublingual bleeding. The dosing vehicle was a phosphate buffer containing mannitol (pH 7.5).
At each sampling time point, samples from two mice were drawn, i.e. 16 mice were included for each compound and each administration route. The mice were euthanized immediately after blood sampling by cervical dislocation. Plasma samples were analyzed after solid phase extraction (SPE) or protein precipitation followed by liquid chromatography mass spectrometry (LC-MS/MS). Mean plasma concentrations were used for calculation of the pharmacokinetic parameters using the non-compartmental approach in Phoenix WinNonlin 6.3. Plasma terminal elimination half-life (T½) was determined as […] where λz is the magnitude of the slope of the log linear regression of the log concentration versus time profile during the terminal phase. Bioavailability was determined as AUCinf (s.c.)/AUCinf (i.v.)×100, where AUCinf is the area under the plasma concentration−time curve extrapolated to infinity (AUCinf=AUClast+Clast/λz, where Clast is the last observed plasma concentration). Tmax is the post-dose time where the maximal plasma concentration was observed.

[2] = Table 2, HEK293 cells expressing human GLP-1 R, read-out: hGLP1-R cAMP EC50 average value
[3] = Table 2, HEK293 cells expressing human GIP R
[4] = Table 3, most comprehensive data
[5] = iv, single i.v. bolus, read-out: T½ terminal elimination half-life, i.v. (converted)
[6] = Table 3, most comprehensive data, read-out: hGLP-1-R cAMP EC50 average value
[7] = sc, single s.c. bolus, read-out: T½ terminal elimination half-life, s.c. (converted)

Compound	EC50 (human GLP-1 R; [2]) [nM]	EC50 (human GLP-1 R; Table 2a, secondary assay study, read-out: hGLP1-R cAMP EC50 average value) [nM]	EC50 (human GIP R; [3]) [nM]	EC50 (human GIP R; Table 2a, secondary assay study) [nM]	EC50 (human GIP R; [4]) [nM]	half-life [1, 5] [h]	bioavailability [1] [%]	Tmax ([1]; sc, single s.c. bolus) [h]	EC50 (human GLP-1 R; [6]) [nM]	half-life [1, 7] [h]
CC[C@H](C)[C@H](NC(=O)[C@H](CO)NC(=O)[C@H](Cc1ccc(O)cc1)NC(=O)[C@H](CC(=O)O)NC(=O)[C@H](CO)NC(=O)[C@@H](NC(=O)[C@H](Cc1ccccc1)NC(=O)[C@@H](NC(=O)CNC(=O)[C@H](CCC(=O)O)NC(=O)C(C)(C)NC(=O)[C@@H](N)Cc1ccc(O)cc1)[C@@H](C)O)[C@@H](C)O)C(=O)N[C@@H](Cc1ccc(O)cc1)C(=O)N[C@@H](CC(C)C)C(=O)N[C@@H](CC(=O)O)C(=O)N[C@@H](CCCCN)C(=O)N[C@@H](CCCCNC(=O)COCCOCCNC(=O)COCCOCCNC(=O)COCCOCCNC(=O)CC[C@H](NC(=O)CCCCCCCCCCCCCCCCCCC(=O)O)C(=O)O)C(=O)N[C@@H](C)C(=O)N[C@@H](CCC(N)=O)C(=O)N[C@@H](CCCNC(=N)N)C(=O)N[C@@H](C)C(=O)N[C@@H](Cc1ccccc1)C(=O)N[C@H](C(=O)N[C@@H](CCC(=O)O)C(=O)N[C@@H](Cc1c[nH]c2ccccc12)C(=O)N[C@@H](CC(C)C)C(=O)N[C@@H](CC(C)C)C(=O)N[C@@H](C)C(=O)N[C@@H](CCC(N)=O)C(=O)NCC(=O)N1CCC[C@H]1C(=O)N[C@@H](CO)C(=O)N[C@@H](CO)C(=O)NCC(=O)N[C@@H](C)C(=O)N1CCC[C@H]1C(=O)N1CCC[C@H]1C(=O)N1CCC[C@H]1C(=O)N[C@@H](CO)C(N)=O)C(C)C [Compound 8] (H-Y[Aib]EGTFTSDYSIYLDKK([AEEA-AEEA-AEEA-γGlu-C20 diacid])AQRAFVEWLLAQGPSSGAPPPS-NH2)	0.012	0.012	0.0053	0.005	0.005	17.2	54	8	–	–
CC[C@H](C)[C@H](NC(=O)[C@H](CO)NC(=O)[C@H](Cc1ccc(O)cc1)NC(=O)[C@H](CC(=O)O)NC(=O)[C@H](CO)NC(=O)[C@@H](NC(=O)[C@H](Cc1ccccc1)NC(=O)[C@@H](NC(=O)CNC(=O)[C@H](CCC(=O)O)NC(=O)C(C)(C)NC(=O)[C@@H](N)Cc1ccc(O)cc1)[C@@H](C)O)[C@@H](C)O)C(=O)N[C@@H](C)C(=O)N[C@@H](CC(C)C)C(=O)N[C@@H](CC(=O)O)C(=O)N[C@@H](CCCCN)C(=O)N[C@@H](CCCCNC(=O)COCCOCCNC(=O)COCCOCCNC(=O)CC[C@H](NC(=O)CCCCCCCCCCCCCCCCCCC(=O)O)C(=O)O)C(=O)N[C@@H](C)C(=O)N[C@@H](CCC(N)=O)C(=O)N[C@@H](CCCNC(=N)N)C(=O)N[C@@H](C)C(=O)N[C@@H](Cc1ccccc1)C(=O)N[C@H](C(=O)N[C@@H](CC(N)=O)C(=O)N[C@@H](Cc1c[nH]c2ccccc12)C(=O)N[C@@H](CC(C)C)C(=O)N[C@H](C(=O)N[C@@H](C)C(=O)NC(C)(C)C(=O)N[C@@H](CCCCN)C(=O)N1CCC[C@H]1C(=O)N[C@@H](CO)C(=O)N[C@@H](CO)C(=O)NCC(=O)N[C@@H](C)C(=O)N1CCC[C@H]1C(=O)N1CCC[C@H]1C(=O)N1CCC[C@H]1C(=O)N[C@@H](CO)C(N)=O)C(C)C)C(C)C [Compound 15]	0.0088	–	0.008	–	0.008	17.3	95	8	0.009	–
CC[C@H](C)[C@H](NC(=O)[C@H](CO)NC(=O)[C@H](Cc1ccc(O)cc1)NC(=O)[C@H](CC(=O)O)NC(=O)[C@H](CO)NC(=O)[C@@H](NC(=O)[C@H](Cc1ccccc1)NC(=O)[C@@H](NC(=O)CNC(=O)[C@H](CCC(=O)O)NC(=O)C(C)(C)NC(=O)[C@@H](N)Cc1ccc(O)cc1)[C@@H](C)O)[C@@H](C)O)C(=O)N[C@@H](C)C(=O)N[C@@H](CC(C)C)C(=O)N[C@@H](CCC(=O)O)C(=O)N[C@@H](CCCCN)C(=O)N[C@@H](CCCCNC(=O)COCCOCCNC(=O)COCCOCCNC(=O)CC[C@H](NC(=O)CCCCCCCCCCCCCCCCC(=O)O)C(=O)O)C(=O)N[C@@H](C)C(=O)N[C@@H](CCC(N)=O)C(=O)N[C@@H](CCCNC(=N)N)C(=O)N[C@@H](C)C(=O)N[C@@H](Cc1ccccc1)C(=O)N[C@H](C(=O)N[C@@H](CCC(=O)O)C(=O)N[C@@H](Cc1c[nH]c2ccccc12)C(=O)N[C@@H](CC(C)C)C(=O)N[C@@H](CC(C)C)C(=O)N[C@@H](C)C(=O)N[C@@H](CCC(N)=O)C(=O)N[C@@H](CCCCN)C(N)=O)C(C)C [Compound 16] (H-Y[Aib]EGTFTSDYSIALEKK([AEEA-AEEA-γGlu-C18 diacid])AQRAFVEWLLAQK-NH2)	0.015	–	0.0081	–	0.008	7.4	50	6	–	–
CC[C@H](C)[C@H](NC(=O)[C@H](CO)NC(=O)[C@H](CC(C)C)NC(=O)[C@H](CC(=O)O)NC(=O)[C@H](CO)NC(=O)[C@@H](NC(=O)[C@H](Cc1ccccc1)NC(=O)[C@@H](NC(=O)CNC(=O)[C@H](CCC(=O)O)NC(=O)C(C)(C)NC(=O)[C@@H](N)Cc1ccc(O)cc1)[C@@H](C)O)[C@@H](C)O)C(=O)N[C@@H](C)C(=O)N[C@@H](CC(C)C)C(=O)N[C@@H](CCC(=O)O)C(=O)N[C@@H](CCCCN)C(=O)N[C@@H](CCCCNC(=O)COCCOCCNC(=O)COCCOCCNC(=O)CC[C@H](NC(=O)CCCCCCCCCCCCCCCCCCC(=O)O)C(=O)O)C(=O)N[C@@H](C)C(=O)N[C@@H](CCC(N)=O)C(=O)N[C@@H](CCCNC(=N)N)C(=O)N[C@@H](C)C(=O)N[C@@H](Cc1ccccc1)C(=O)N[C@H](C(=O)N[C@@H](CCC(=O)O)C(=O)N[C@@H](Cc1c[nH]c2ccccc12)C(=O)N[C@@H](CC(C)C)C(=O)N[C@@H](CC(C)C)C(=O)N[C@@H](C)C(=O)N[C@@H](CCC(N)=O)C(=O)N[C@@H](CCCCN)C(N)=O)C(C)C [Compound 28] (H-Y[Aib]EGTFTSDLSIALEKK([AEEA-AEEA-γGlu-C20 diacid])AQRAFVEWLLAQK-NH2)	0.017	–	0.024	–	–	13.6	93	2	0.015	14.1
CC[C@H](C)[C@H](NC(=O)[C@H](CO)NC(=O)[C@H](Cc1ccc(O)cc1)NC(=O)[C@H](CC(=O)O)NC(=O)[C@H](CO)NC(=O)[C@@H](NC(=O)[C@H](Cc1ccccc1)NC(=O)[C@@H](NC(=O)CNC(=O)[C@H](CCC(=O)O)NC(=O)[C@@H](C)NC(=O)[C@@H](N)Cc1ccc(O)cc1)[C@@H](C)O)[C@@H](C)O)C(=O)N[C@@H](Cc1ccc(O)cc1)C(=O)N[C@@H](CC(C)C)C(=O)N[C@@H](CC(=O)O)C(=O)N[C@@H](CCCCN)C(=O)N[C@@H](CCCCNC(=O)COCCOCCNC(=O)COCCOCCNC(=O)CC[C@H](NC(=O)CCCCCCCCCCCCCCCCCCC(=O)O)C(=O)O)C(=O)N[C@@H](C)C(=O)N[C@@H](CCC(N)=O)C(=O)N[C@@H](CCCNC(=N)N)C(=O)N[C@@H](C)C(=O)N[C@@H](Cc1ccccc1)C(=O)N[C@H](C(=O)N[C@@H](CCC(=O)O)C(=O)N[C@@H](Cc1c[nH]c2ccccc12)C(=O)N[C@@H](CC(C)C)C(=O)N[C@@H](CC(C)C)C(=O)N[C@@H](C)C(=O)N[C@@H](CCC(N)=O)C(=O)NCC(=O)N1CCC[C@H]1C(=O)N[C@@H](CO)C(=O)N[C@@H](CO)C(=O)NCC(=O)N[C@@H](C)C(=O)N1CCC[C@H]1C(=O)N1CCC[C@H]1C(=O)N1CCC[C@H]1C(=O)N[C@@H](CO)C(N)=O)C(C)C [Compound 30] (H-Y[dA]EGTFTSDYSIYLDKK([AEEA-AEEA-γGlu-C20 diacid])AQRAFVEWLLAQGPSSGAPPPS-NH2)	0.028	–	0.015	–	0.017	17.1	83	8	0.035	15.9
